Results reported in patent US20070049564A1 (Wyeth, priority 2005, published 2007).
Values after ≈ are worked out from the molar mass of the structure shown. Read-outs that look alike come from different tables or passages of the source.

How the values were obtained:
[1] = test system: E. coli GC 2271; test: MIC, broth microdilution; settings: Escherichia coli
[2] = test system: E. coli GC 2233; test: MIC, broth microdilution; settings: Escherichia coli
[3] = test system: E. coli GC 2235; test: MIC, broth microdilution; settings: Escherichia coli
[4] = test system: E. coli GC 4559; test: MIC, broth microdilution; settings: Escherichia coli
[5] = test system: E. coli GC 6465; test: MIC, broth microdilution; settings: Escherichia coli
Method: (§1) Antimicrobial susceptibility testing. The in vitro activities of the antibiotics are determined by the broth microdilution method as recommended by the National Committee for Clinical Laboratory Standards (NCCLS) (1). Mueller-Hinton II broth (MHBII)(BBL Cockeysville, Md.) is the medium employed in the testing procedures. Microtiter plates containing serial dilutions of each antimicrobial agent are inoculated with each organism to yield the appropriate density (10^5 CFU/ml) in a 100 μl final volume. The plates are incubated for 18-22 hours at 35° C. in ambient air.
(§2) Representative compounds were first incubated in mouse serum for an hour prior to the in vitro testing against a panel of selected gram-positive and gram-negative bacteria strains. All compounds were also pre-incubated in water for an hour prior to testing as control.

[6] = test system: E. coli; test: Range of MIC for E. coli strains; settings: Escherichia coli
[7] = test system: P. aeruginosa GC 2214; test: MIC, broth microdilution; settings: Pseudomonas aeruginosa
[8] = test system: E. faecalis GC 2265; test: MIC, broth microdilution; settings: Enterococcus faecalis
[9] = test system: E. faecalis GC 4555; test: MIC, broth microdilution; settings: Enterococcus faecalis
Method: as §1
Representative compounds were first incubated in mouse serum for an hour prior to the in vitro testing against a panel of selected gram-positive and gram-negative bacteria strains. All compounds were also pre-incubated in water for an hour prior to testing as control. Representative compounds of Formula I were incubated in human serum prior to MIC determination.

[10] = test system: S. aureus GC 6469; test: MIC, broth microdilution; settings: Staphylococcus aureus
Method: as §1, §2

[11] = test system: E. coli GC 4560; test: MIC, broth microdilution; settings: Escherichia coli
[12] = test system: E. coli GC 1073; test: MIC, broth microdilution; settings: Escherichia coli
[13] = test system: E. faecalis GC 2242; test: MIC, broth microdilution; settings: Enterococcus faecalis
[14] = test system: E. coli GC 2270; test: MIC, broth microdilution; settings: Escherichia coli
[15] = test system: S. aureus GC 6467; test: MIC, broth microdilution; settings: Staphylococcus aureus
Method: as §1, §2

[16] = test system: Staph.; test: Range of MIC for Staph. strains, including MRSA; settings: Staphylococcus aureus
[17] = test system: E. coli GC 2203; test: MIC, broth microdilution; settings: Escherichia coli
[18] = test system: S. aureus GC 4536; test: MIC, broth microdilution; settings: Staphylococcus aureus
[19] = test system: S. agalactiae GC 4564; test: MIC, broth microdilution; settings: Streptococcus agalactiae
[20] = test system: E. coli GC 2236; test: MIC, broth microdilution; settings: Escherichia coli

CCCCOC(=O)N(CC(=O)Nc1cc(N(C)C)c2c(c1O)C(=O)C1=C(O)[C@]3(O)C(=O)C(C(N)=O)=C(O)[C@@H](N(C)C)[C@@H]3C[C@@H]1C2)C(C)(C)C [Example 58, butyl 2-{[(5aR,6aS,7S,10aS)-9-(aminocarbonyl)-4,7-bis(dimethylamino)-1,8,10a,11-tetrahydroxy-10,12-dioxo-5,5a,6,6a,7,10,10a,12-octahydrotetracen-2-yl]amino}-2-oxoethyl(tert-butyl)carbamate]
MIC ([1]; GC2271, read-out: MINIMAL INHIBITORY CONCENTRATION MIC, Human Serum): > 64 µg/mL | MIC ([1]; GC2271, read-out: MINIMAL INHIBITORY CONCENTRATION MIC, Mouse Serum): > 64 µg/mL | MIC ([1]; GC2271, read-out: MINIMAL INHIBITORY CONCENTRATION MIC, Water): > 64 µg/mL | MIC ([2]; GC2233, read-out: MINIMAL INHIBITORY CONCENTRATION MIC, Human Serum): > 64 µg/mL | MIC ([2]; GC2233, read-out: MINIMAL INHIBITORY CONCENTRATION MIC, Mouse Serum): > 64 µg/mL | MIC ([2]; GC2233, read-out: MINIMAL INHIBITORY CONCENTRATION MIC, Water): > 64 µg/mL | MIC ([3]; GC2235, read-out: MINIMAL INHIBITORY CONCENTRATION MIC, Human Serum): > 64 µg/mL | MIC ([3]; GC2235, read-out: MINIMAL INHIBITORY CONCENTRATION MIC, Mouse Serum): > 64 µg/mL | MIC ([3]; GC2235, read-out: MINIMAL INHIBITORY CONCENTRATION MIC, Water): > 64 µg/mL | MIC ([4]; GC4559, read-out: MINIMAL INHIBITORY CONCENTRATION MIC, Human Serum): > 64 µg/mL | MIC ([4]; GC4559, read-out: MINIMAL INHIBITORY CONCENTRATION MIC, Mouse Serum): > 64 µg/mL | MIC ([4]; GC4559, read-out: MINIMAL INHIBITORY CONCENTRATION MIC, Water): > 64 µg/mL | MIC ([5]; GC6465, read-out: MINIMAL INHIBITORY CONCENTRATION MIC, Human Serum): > 64 µg/mL | MIC ([5]; GC6465, read-out: MINIMAL INHIBITORY CONCENTRATION MIC, Mouse Serum): > 64 µg/mL | MIC ([5]; GC6465, read-out: MINIMAL INHIBITORY CONCENTRATION MIC, Water): > 64 µg/mL | MIC ([6]; 20 h, read-out: Range of MIC, E. coli (Mouse Serum)): > 64 µg/mL | MIC ([6]; read-out: Minimum inhibitory concentration (MIC), E. coli (Human Serum)): > 64 µg/mL | MIC ([6]; read-out: Minimum inhibitory concentration (MIC), E. coli (water)): > 64 µg/mL | MIC ([6]; read-out: Range of MIC, E. coli (Water)): > 64 µg/mL | MIC ([7]; GC2214, read-out: MINIMAL INHIBITORY CONCENTRATION MIC, Human Serum): > 64 µg/mL | MIC ([7]; GC2214, read-out: MINIMAL INHIBITORY CONCENTRATION MIC, Mouse Serum): > 64 µg/mL | MIC ([7]; GC2214, read-out: MINIMAL INHIBITORY CONCENTRATION MIC, Water): > 64 µg/mL | MIC ([8]; GC2265, read-out: MINIMAL INHIBITORY CONCENTRATION MIC, Human Serum): 4 µg/mL (≈ 5.83 µM) | MIC ([8]; GC2265, read-out: MINIMAL INHIBITORY CONCENTRATION MIC, Mouse Serum): 4 µg/mL (≈ 5.83 µM) | MIC ([8]; GC2265, read-out: MINIMAL INHIBITORY CONCENTRATION MIC, Water): 4 µg/mL (≈ 5.83 µM) | MIC ([9]; GC4555, read-out: MINIMAL INHIBITORY CONCENTRATION MIC, Human Serum): 4 µg/mL (≈ 5.83 µM) | MIC ([9]; GC4555, read-out: MINIMAL INHIBITORY CONCENTRATION MIC, Mouse Serum): 4 µg/mL (≈ 5.83 µM) | MIC ([9]; GC4555, read-out: MINIMAL INHIBITORY CONCENTRATION MIC, Water): 8 µg/mL (≈ 11.7 µM) | MIC ([10]; GC6469, read-out: MINIMAL INHIBITORY CONCENTRATION MIC, Human Serum): 4 µg/mL (≈ 5.83 µM) | MIC ([10]; GC6469, read-out: MINIMAL INHIBITORY CONCENTRATION MIC, Mouse Serum): 2 µg/mL (≈ 2.92 µM) | MIC ([10]; GC6469, read-out: MINIMAL INHIBITORY CONCENTRATION MIC, Water): 4 µg/mL (≈ 5.83 µM) | MIC ([11]; GC4560, read-out: MINIMAL INHIBITORY CONCENTRATION MIC, Human Serum): 4 µg/mL (≈ 5.83 µM) | MIC ([11]; GC4560, read-out: MINIMAL INHIBITORY CONCENTRATION MIC, Mouse Serum): 4 µg/mL (≈ 5.83 µM) | MIC ([11]; GC4560, read-out: MINIMAL INHIBITORY CONCENTRATION MIC, Water): 4 µg/mL (≈ 5.83 µM) | MIC ([12]; GC1073, read-out: MINIMAL INHIBITORY CONCENTRATION MIC, Human Serum): > 64 µg/mL | MIC ([12]; GC1073, read-out: MINIMAL INHIBITORY CONCENTRATION MIC, Mouse Serum): > 64 µg/mL | MIC ([12]; GC1073, read-out: MINIMAL INHIBITORY CONCENTRATION MIC, Water): > 64 µg/mL | MIC ([13]; GC2242, read-out: MINIMAL INHIBITORY CONCENTRATION MIC, Human Serum): 4 µg/mL (≈ 5.83 µM) | MIC ([13]; GC2242, read-out: MINIMAL INHIBITORY CONCENTRATION MIC, Mouse Serum): 2 µg/mL (≈ 2.92 µM) | MIC ([13]; GC2242, read-out: MINIMAL INHIBITORY CONCENTRATION MIC, Water): 4 µg/mL (≈ 5.83 µM) | MIC ([14]; GC2270, read-out: MINIMAL INHIBITORY CONCENTRATION MIC, Human Serum): > 64 µg/mL | MIC ([14]; GC2270, read-out: MINIMAL INHIBITORY CONCENTRATION MIC, Mouse Serum): > 64 µg/mL | MIC ([14]; GC2270, read-out: MINIMAL INHIBITORY CONCENTRATION MIC, Water): > 64 µg/mL | MIC ([15]; GC6467, read-out: MINIMAL INHIBITORY CONCENTRATION MIC, Human Serum): 4 µg/mL (≈ 5.83 µM) | MIC ([15]; GC6467, read-out: MINIMAL INHIBITORY CONCENTRATION MIC, Mouse Serum): 2 µg/mL (≈ 2.92 µM) | MIC ([15]; GC6467, read-out: MINIMAL INHIBITORY CONCENTRATION MIC, Water): 4 µg/mL (≈ 5.83 µM) | MIC ([16]; MRSA, read-out: Range of MIC, Staph (Mouse Serum)): 2 to 4 µg/mL (≈ 2.92 to 5.83 µM) | MIC ([16]; MRSA, read-out: Range of MIC, Staph (Water)): 4 to 8 µg/mL (≈ 5.83 to 11.7 µM) | MIC ([16]; read-out: Minimum inhibitory concentration (MIC), Staph (Human Serum)): 4 µg/mL (≈ 5.83 µM) | MIC ([16]; read-out: Minimum inhibitory concentration (MIC), Staph (Water)): 4 to 8 µg/mL (≈ 5.83 to 11.7 µM) | MIC ([17]; GC2203, read-out: MINIMAL INHIBITORY CONCENTRATION MIC, Human Serum): > 64 µg/mL | MIC ([17]; GC2203, read-out: MINIMAL INHIBITORY CONCENTRATION MIC, Mouse Serum): > 64 µg/mL | MIC ([17]; GC2203, read-out: MINIMAL INHIBITORY CONCENTRATION MIC, Water): > 64 µg/mL | MIC ([18]; GC4536, read-out: MINIMAL INHIBITORY CONCENTRATION MIC, Human Serum): 4 µg/mL (≈ 5.83 µM) | MIC ([18]; GC4536, read-out: MINIMAL INHIBITORY CONCENTRATION MIC, Mouse Serum): 2 µg/mL (≈ 2.92 µM) | MIC ([18]; GC4536, read-out: MINIMAL INHIBITORY CONCENTRATION MIC, Water): 4 µg/mL (≈ 5.83 µM) | MIC ([19]; GC4564, read-out: MINIMAL INHIBITORY CONCENTRATION MIC, Human Serum): 16 µg/mL (≈ 23.3 µM) | MIC ([19]; GC4564, read-out: MINIMAL INHIBITORY CONCENTRATION MIC, Mouse Serum): 8 µg/mL (≈ 11.7 µM) | MIC ([19]; GC4564, read-out: MINIMAL INHIBITORY CONCENTRATION MIC, Water): 8 µg/mL (≈ 11.7 µM) | MIC ([20]; GC2236, read-out: MINIMAL INHIBITORY CONCENTRATION MIC, Human Serum): > 64 µg/mL | MIC ([20]; GC2236, read-out: MINIMAL INHIBITORY CONCENTRATION MIC, Mouse Serum): > 64 µg/mL | MIC ([20]; GC2236, read-out: MINIMAL INHIBITORY CONCENTRATION MIC, Water): > 64 µg/mL
